EP4610269A1, “UROKINASE PLASMINOGEN ACTIVATOR SURFACE RECEPTOR (UPAR) LIGANDS FOR DIAGNOSTIC OR THERAPEUTIC USE” (3B Pharmaceuticals GmbH, priority 2024, dated 2025)
Like-named read-outs stand apart in the source and are kept apart here. *1 amine or outer side, *2 acyl side, *3 side chain or, on linkers, in order; H or OH if unused. Where a SMILES comes first, the peptide text is derived from it. Bridges are numbered along the chain shown (N, C = ends). [ ]: non-standard residue; d: D form. The star is where a group is joined. DOTA = O=C(O)CN1CCN(CC(=O)O)CCN(CC(=O)*)CCN(CC(=O)O)CC1; Phe(4-guanidino) = N=C(N)Nc1ccc(C[C@H](N)C(=O)O)cc1; Hyp = O=C(O)[C@@H]1C[C@@H](O)CN1; Cit = NC(=O)NCCC[C@H](N)C(=O)O; Nle = CCCC[C@H](N)C(=O)O; dNMeA = CN[C@H](C)C(=O)O; Api = NC1(C(=O)O)CCNCC1; Nva = CCC[C@H](N)C(=O)O; Pentanoyl = CCCCC(=O)*; CO = O=C([*:1])[*:2]; NHBu = CCCCN*

Experiments:
human uPAR (uPAR-Fc) = target: T1, human uPAR (uPAR-Fc) (Homo sapiens, UniProt Q03405); test: Surface plasmon resonance (SPR) assay, single cycle kinetics; type: binding; details: pKD category for uPAR SPR activity assay, uPAR-Fc on Protein A-Chip, 25°C, read-out: pKD CAT (converted)
T1 construct: comprising amino acids Leu23-Arg303 according to UniProt entry Q03405.1; purchased R&D Systems 10378-UK-100
T1 sequence (Q03405 23-303): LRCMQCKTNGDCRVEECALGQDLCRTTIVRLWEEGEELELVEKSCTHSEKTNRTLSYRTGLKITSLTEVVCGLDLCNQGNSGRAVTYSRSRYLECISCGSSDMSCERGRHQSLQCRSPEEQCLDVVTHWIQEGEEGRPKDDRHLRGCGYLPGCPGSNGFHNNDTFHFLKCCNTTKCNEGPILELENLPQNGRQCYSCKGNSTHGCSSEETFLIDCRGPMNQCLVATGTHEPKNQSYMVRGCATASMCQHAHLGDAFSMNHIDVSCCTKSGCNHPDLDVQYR
Summary of the method: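 uPAR-Fc (Leu23-Arg303 extracellular domains, human IgG1 Fc) captured on Protein A chip to ~2000 RU; single-cycle kinetics at 25°C in HEPES running buffer pH 7.4 with 0.1% DMSO. KD from double-referenced sensorgrams fitted to 1:1 Langmuir model, reported as pKD.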

[1] = target: T2, uPAR-expressing HEC-265 human endometrial adenocarcinoma cells (Homo sapiens, UniProt Q03405); test: Competitive FACS binding assay; details: pIC50 category of FACS binding
T2 construct: Cell surface uPAR-expressing HEC-265 human endometrial adenocarcinoma cells; host or cells: HEC-265
T2 sequence (Q03405 23-335): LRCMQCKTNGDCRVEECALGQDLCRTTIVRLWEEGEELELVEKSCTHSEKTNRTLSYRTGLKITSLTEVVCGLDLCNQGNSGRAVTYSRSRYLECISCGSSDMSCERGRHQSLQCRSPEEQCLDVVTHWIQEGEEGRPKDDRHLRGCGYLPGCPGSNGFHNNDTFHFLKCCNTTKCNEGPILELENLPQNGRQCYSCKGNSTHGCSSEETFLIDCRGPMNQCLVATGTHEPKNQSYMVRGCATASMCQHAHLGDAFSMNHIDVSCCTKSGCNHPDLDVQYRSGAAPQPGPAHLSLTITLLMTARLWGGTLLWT
Summary of the method: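 Competitive displacement of a 10 nM biotinylated peptide from HEC-265 cells (1 h, 4 °C, PBS/1% BSA), detected via APC-streptavidin by flow cytometry. pIC50 from four-parameter logistic fit of median fluorescence versus concentration.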

| Structure (SMILES) | Kd (human uPAR (uPAR-Fc)) [µM] | IC50 [1] [µM] | Kd (human uPAR (uPAR-Fc); single cycle kinetics) [µM] |
| --- | --- | --- | --- |
| CCCCC(=O)N[C@H]1CSSC[C@@H](C(N)=O)NC(=O)[C@H](CCC)NC(=O)[C@H]([C@@H](C)CC)NC(=O)[C@@H]2C[C@@H](O)CN2C(=O)[C@@H]2CCCN2C(=O)[C@H](Cc2ccccc2)NC(=O)[C@H](Cc2ccc(O)cc2)NC(=O)C2(CCN(C(=O)CN3CCN(CC(=O)O)CCN(CC(=O)O)CCN(CC(=O)O)CC3)CC2)NC(=O)[C@H]([C@@H](C)O)NC1=O [UPAR-288, Pent-[Cys-Thr-Apc(DOTA)-Tyr-Phe-Pro-Hyp-Ile-Nva-Cys]-NH2] (Pentanoyl-CT[Api](DOTA)YFP[Hyp]I[Nva]C-NH2; disulfide 1-10) | < 0.00158 | ≤ 0.01 |  |
| CCCCNC(=O)N[C@H]1CSSC[C@@H](C(N)=O)NC(=O)[C@H](CCC)NC(=O)[C@H]([C@@H](C)CC)NC(=O)[C@@H]2C[C@@H](O)CN2C(=O)[C@@H]2CCCN2C(=O)[C@H](Cc2ccccc2)NC(=O)[C@H](Cc2ccc(O)cc2)NC(=O)[C@H](CCCCNC(=O)CN2CCN(CC(=O)O)CCN(CC(=O)O)CCN(CC(=O)O)CC2)NC(=O)[C@H]([C@@H](C)O)NC1=O [UPAR-242, nBuCAyl-[Cys-Thr-Lys(DOTA)-Tyr-Phe-Pro-Hyp-Ile-Nva-Cys]-NHz] ({NHBu-CO}-CTK(DOTA)YFP[Hyp]I[Nva]C-NH2; disulfide 1-10) | < 0.00158 | ≤ 0.01 |  |
| CCCCC(=O)N[C@H]1CSSC[C@@H](C(N)=O)NC(=O)[C@H](CCC)NC(=O)[C@H]([C@@H](C)CC)NC(=O)[C@@H]2C[C@@H](O)CN2C(=O)[C@@H]2CCCN2C(=O)[C@H](Cc2ccccc2)NC(=O)[C@H](Cc2ccc(NC(=N)N)cc2)NC(=O)[C@H](CCCCNC(=O)CN2CCN(CC(=O)O)CCN(CC(=O)O)CCN(CC(=O)O)CC2)NC(=O)[C@H](CCCNC(N)=O)NC1=O [UPAR-149, Pent-[Cys-Cit-Lys(DOTA)-Guf-Phe-Pro-Hyp-Ile-Nva-Cys]-NH2] (Pentanoyl-C[Cit]K(DOTA)[Phe(4-guanidino)]FP[Hyp]I[Nva]C-NH2; disulfide 1-10) | < 0.00158 | ≤ 0.01 |  |

Results, then the molecule that gave them:

| Kd (human uPAR (uPAR-Fc)) [µM] | IC50 [1] [µM] | Kd (human uPAR (uPAR-Fc); single cycle kinetics) [µM] | Structure (SMILES) |
| --- | --- | --- | --- |
| > 0.1 | ≥ 0.126 |  | CCCC[C@@H]1NC(=O)[C@H](CCCNC(=N)N)NC(=O)[C@@H](NC(=O)[C@H](CC(C)C)NC(=O)[C@H](CC(=O)O)NC(C)=O)CSSC[C@@H](C(N)=O)NC(=O)[C@H](CC(C)C)NC(=O)[C@H]([C@@H](C)CC)NC(=O)[C@H](C)NC(=O)[C@H]2CCCN2C(=O)[C@H](Cc2ccccc2)NC(=O)[C@H](Cc2ccc(O)cc2)NC1=O [UPAR-218, Ac-Asp-Leu-[Cys-Arg-Nle-Tyr-Phe-pro-Ala-Ile-Leu-Cys]-NH2] (Ac-DLCR[Nle]YF[dP]AILC-NH2; disulfide 3-12) |
|  | ≤ 0.01 | < 0.00158 | CCCCC(=O)N[C@H]1CSSC[C@@H](C(N)=O)NC(=O)[C@H](CCC)NC(=O)[C@H]([C@@H](C)CC)NC(=O)[C@@H](C)N(C)C(=O)[C@@H]2CCCN2C(=O)[C@H](Cc2ccccc2)NC(=O)[C@H](Cc2ccc(O)cc2)NC(=O)[C@H](CCCCNC(=O)CN2CCN(CC(=O)O)CCN(CC(=O)O)CCN(CC(=O)O)CC2)NC(=O)[C@H](CCCNC(N)=O)NC1=O [UPAR-384, Pent-[Cys-Cit-Lys(DOTA)-Tyr-Phe-Pro-nma-Ile-Nva-Cys]-NH2] (Pentanoyl-C[Cit]K(DOTA)YFP[dNMeA]I[Nva]C-NH2; disulfide 1-10) |
| > 0.1 | ≥ 0.126 |  | CC[C@H](C)[C@@H]1NC(=O)[C@@H](C)NC(=O)[C@@H]2CCCN2C(=O)[C@H](Cc2ccccc2)NC(=O)[C@H](Cc2ccc(O)cc2)NC(=O)[C@H](CCC(N)=O)NC(=O)[C@H](CCCNC(N)=O)NC(=O)[C@@H](NC(=O)CNC(C)=O)CSSC[C@@H](C(N)=O)NC(=O)[C@H](CC(C)C)NC1=O [UPAR-334, Ac-Gly-[Cys-Cit-Gln-Tyr-Phe-Pro-ala-Ile-Leu-Cys]-NH2] (Ac-GC[Cit]QYFP[dA]ILC-NH2; disulfide 2-11) |
